From PMC10600239, “Selective MCL-1 inhibitor ABBV-467 is efficacious in tumor models but is associated with cardiac troponin increases in patients” (Communications Medicine, 2023)

Tests used:
Test in all cases: TR-FRET binding assay, MCL-1 orthologs
dog MCL1 = target: T1, dog MCL1 (Canis lupus familiaris, UniProt Q8HYS5); settings: read-out: Ki, canine MCL-1
T1 construct: rhesus monkey (iso4, NM_001 1089 3 7, AA 171-327), dog (NM_001 0030 16, AA17 1- 327); made in house; host or cells: E. coli BL21(DE3)-T1R
T1 sequence (Q8HYS5 171-327): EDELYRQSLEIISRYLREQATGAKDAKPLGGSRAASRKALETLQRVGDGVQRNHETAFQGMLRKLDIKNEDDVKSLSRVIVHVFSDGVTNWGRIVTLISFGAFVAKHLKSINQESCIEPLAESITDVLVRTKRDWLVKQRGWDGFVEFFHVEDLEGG
Experimental: (§1) Binding affinities for MCL-1, BCL-2, BCL-XL, BCL-W, and BCL2-A1 were determined using a time-resolved fluorescence resonance energy transfer (FRET) assay. Test compounds were serially diluted in DMSO starting at […] (20× starting concentration; 100% DMSO followed by a 1:10 dilution of the compound DMSO plate into assay buffer); 10 µL of the compound in 10% DMSO was then transferred into a 384-well plate (low-volume Corning #3673 assay plate). Glutathione S-transferase (GST)-tagged recombinant BCL-2, BCL-XL, MCL-1, BCL-W, or BCL2-A1 protein (1 nM each) were mixed with 100 nM Oregon Green™-labeled f-BAK peptide probe and 1 nM Tb-labeled anti-GST antibody were mixed. Then 10 µL of a 2× protein/probe/antibody mix was added to each well of increasing concentrations of test compound in assay buffer (20 mM potassium phosphate, pH 7.6, 50 mM NaCl, 1 mM ethylenediaminetetraacetic acid disodium salt dihydrate, 0.05% pluronic acid F-68, 1 mM DL-dithiothreitol) at room temperature (final concentrations listed in Supplementary Table S2). The samples were then mixed on a shaker for 1 min and incubated for an additional 1 h at room temperature. For each assay plate, a probe/antibody and protein/antibody/probe mixture were included as a negative and a positive control, respectively. Fluorescence was measured on the EnVision™ (Perkin Elmer) using a 340/35-nm excitation filter and 520/525- (F-Bak) and 495/510-nm (Tb-labeled anti-glutathione S-transferase [GST] antibody) emission filters. Dissociation constants were determined using Wang’s equation[35]. The time-resolved FRET assay can be performed in the presence of varying concentrations of human serum to determine apparent half-maximal inhibitory concentration after serum protein binding.
(§2) Supplementary Table S10: MCL-1 ortholog information and ABBV-467 affinity across species […]
(§3) Mouse Mus musculus Rattus Canis lupus Macaca sp.
(§4) Protein name Mcl1 Mcl1 M CL1 M CL1 […]
(§5) Amino acid sequence homology determined with NCBI BLAST (http://blast.ncbi.nlm.nih.gov). […]

mouse Mcl1 = target: T2, mouse Mcl1 (Mus musculus, UniProt P97287)
T2 construct: made in house; host or cells: E. coli BL21(DE3)-T1R
T2 sequence (P97287 152-308): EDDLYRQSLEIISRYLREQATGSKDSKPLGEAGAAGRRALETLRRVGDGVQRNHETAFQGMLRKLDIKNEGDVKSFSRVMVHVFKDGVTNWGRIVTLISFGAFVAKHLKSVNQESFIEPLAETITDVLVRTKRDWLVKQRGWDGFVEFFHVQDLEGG
Experimental: as §1, §2, §3, §4, §5

rat Mcl1 = target: T3, rat Mcl1 (Rattus norvegicus, UniProt Q9Z1P3)
T3 construct: made in house; host or cells: E. coli BL21(DE3)-T1R
T3 sequence (Q9Z1P3 151-307): as the sequence (P97287 152-308) above, with E1D, D3E, S26A, G71D, V81T, V111I, F116C, T123S counted along it
Experimental: as §1, §2, §3, §4, §5

Cc1c(Cl)c2c(Cl)c(C)c1-c1c(-c3ccc(F)cc3)sc3ncnc(c13)O[C@@H](C(=O)O)Cc1cc(ccc1OCc1ccnc(-c3ccc(OC[C@H]4COCCO4)cc3)n1)OC[C@@H](CN1CCN(C)CC1)O2 [ABBV-467]
Ki (dog MCL1): < 0.1 nM
affinity for the murine mcl1 (mouse Mcl1): substantially reduced affinity
Ki (rat Mcl1): < 0.1 nM
